# Laboratory results published in US20250032527A1, “MEDICAL USE OF N4-HYDROXY CITICOLINE COMPOUNDS” (IMMUNIC AG, priority 2021, published 2025).
# Assays:
# physchem [1] = details: fassgf or other biorelevant, kinetic from dmso stock
# [2] = A-B permeability (Caco-2, pH 6.5/7.4); details: human, A-B, Caco-2, pH 6.5/7.4, test conc. 1.0E−05M
# Caco-2 = assay: A-B permeability (Caco-2, pH 6.5/7.4); details: low solubility, high permeability
# physchem [3] = details: pH 7.4, aqueous buffer, kinetic from dmso stock
# SARS-COV-2 d6-YFP = assay: Combinatorial drug assessment by viral replication inhibition assay (CompuSyn); assay type: cell-based
# physchem [4] = details: simulated gastric fluid
# [5] = system: respiratory syncytial virus (RSV) A2; assay: microbe, parasite or virus in culture; details: human respiratory syncytial virus, MA104
# [6] = system: human rhinovirus 14 (HRV-14); assay: microbe, parasite or virus in culture; details: Rhinovirus B, HRV14, HeLa
# in vitro [7] = details: human
# in vitro [8] = details: African green monkey, MA-104 cells
# in vitro [9] = details: dog, MDCK cells
# [10] = B-A permeability (Caco-2, pH 6.5/7.4); details: human, test conc. 1.0E−05M
# HRV-14 = HRV-14 virus titers by endpoint titration (CCID50), mono and combination; assay type: cell-based; details: for HRV-14 Virus Titers: Hela cells, virus control 6.7
# [11] = system: influenza A (H1N1, California/07/2009); assay: microbe, parasite or virus in culture; details: H1N1, MDCK
# RSV A2 = assay: RSV virus titers by endpoint titration (CCID50), mono and combination; assay type: cell-based; details: for RSV Virus Titers: MA-104 cells, virus control 4.0
# in vitro [12] = details: human, HeLa cells
# SARS-COV-2 = assay: microbe, parasite or virus in culture; assay type: cell-based; details: Severe acute respiratory syndrome coronavirus 2
# physchem [13] = details: pH 7.4
# [14] = Caco-2, pH 6.5, Percent Recovery 1st
# [15] = Caco-2, pH 6.5, Percent Recovery 2nd
# [16] = Caco-2, pH 6.5, Percent Recovery Mean
# [17] = Caco-2, pH 6.5, Permeability 1st
# [18] = Caco-2, pH 6.5, Permeability 2nd
# [19] = Caco-2, pH 6.5, Permeability Mean
# [20] = Example 1 combined with a DHODH inhibitor
compound,measurement,setting,value
"C[N+](C)(C)CCOP(=O)([O-])OP(=O)([O-])OC[C@H]1O[C@@H](n2ccc(NO)nc2=O)[C@H](O)[C@@H]1O.[Na+] [Example 1, 2-(((((((2R,3S,4R,5R)-3,4-Dihydroxy-5-(4-(hydroxyamino)-2-oxopyrimidin-1 (2H)-yl)tetrahydrofuran-2-yl)methoxy) (hydroxy)phosphoryl)oxy)oxidophosphoryl)oxy)-N,N,N-trimethylethan-1-aminium mono sodium salt]",solubility,physchem [1]; Solubility 1st,13.9 µM
same,solubility,physchem [1]; Solubility 2nd,18.3 µM
same,solubility,physchem [1]; Solubility Mean,16.1 µM
same,recovery at 10 µM,[2]; [14],121%
same,recovery at 10 µM,[2]; [15],115%
same,recovery at 10 µM,[2]; [16],118%
same,Papp at 10 µM,[2]; [17],36.1 ×10⁻⁶ cm/s
same,Papp at 10 µM,[2]; [18],30.7 ×10⁻⁶ cm/s
same,Papp at 10 µM,[2]; [19],33.4 ×10⁻⁶ cm/s
same,biopharmaceutics classification,Caco-2,Class Il
same,solubility,physchem [3]; Solubility 1st,14.2 µM
same,solubility,physchem [3]; Solubility 2nd,14.4 µM
same,solubility,physchem [3]; Solubility Mean,14.3 µM
same,combinatorial antiviral effect,SARS-COV-2 d6-YFP,synergistic
same,solubility,physchem [4]; Solubility 1st,< 1 µM
same,solubility,physchem [4]; Solubility 2nd,< 1 µM
same,solubility,physchem [4]; Solubility Mean,< 1 µM
same,EC50,[5],1.1 µM
same,EC50,[6],4.7 µM
same,CC50,in vitro [7],> 100 µM
same,CC50,in vitro [8],2.4 µM
same,CC50,in vitro [9],25 µM
same,recovery at 10 µM,[10]; [14],91%
same,recovery at 10 µM,[10]; [15],83%
same,recovery at 10 µM,[10]; [16],87%
same,Papp at 10 µM,[10]; [17],26.1 ×10⁻⁶ cm/s
same,Papp at 10 µM,[10]; [18],21.2 ×10⁻⁶ cm/s
same,Papp at 10 µM,[10]; [19],23.7 ×10⁻⁶ cm/s
same,HRV-14 Virus Titers,HRV-14; Conc. 0.0079 μM,6.7 CCID50/mL (Log10)
same,HRV-14 Virus Titers,HRV-14; Conc. 0.025 μM,6.7 CCID50/mL (Log10)
same,HRV-14 Virus Titers,HRV-14; Conc. 0.079 μM,6.7 CCID50/mL (Log10)
same,HRV-14 Virus Titers,HRV-14; Conc. 0.25 μM,7.0 CCID50/mL (Log10)
same,HRV-14 Virus Titers,HRV-14; Conc. 0.79 μM,6.7 CCID50/mL (Log10)
same,HRV-14 Virus Titers,HRV-14; Conc. 2.5 μM,6.0 CCID50/mL (Log10)
same,HRV-14 Virus Titers,HRV-14; Conc. 7.9 μM,4.7 CCID50/mL (Log10)
same,HRV-14 Virus Titers,HRV-14; Conc. 25 μM,3.5 CCID50/mL (Log10)
same,combination behavior on HRV-14,HRV-14; [20],synergistic
same,EC50,[11],4.8 µM
same,RSV Virus Titers,RSV A2; Conc. 0.0079 μM,4.5 CCID50/mL (Log10)
same,RSV Virus Titers,RSV A2; Conc. 0.025 μM,4.0 CCID50/mL (Log10)
same,RSV Virus Titers,RSV A2; Conc. 0.079 μM,3.5 CCID50/mL (Log10)
same,RSV Virus Titers,RSV A2; Conc. 0.25 μM,4.0 CCID50/mL (Log10)
same,RSV Virus Titers,RSV A2; Conc. 0.79 μM,4.0 CCID50/mL (Log10)
same,RSV Virus Titers,RSV A2; Conc. 2.5 μM,3.5 CCID50/mL (Log10)
same,RSV Virus Titers,RSV A2; Conc. 7.9 μM,3.5 CCID50/mL (Log10)
same,RSV Virus Titers,RSV A2; Conc. 25 μM,3.5 CCID50/mL (Log10)
same,combination behavior on RSV,RSV A2; [20],synergistic
same,CC50,in vitro [12],> 25 µM
same,EC50,SARS-COV-2,< 10 µM
same,logD,physchem [13],0.52
